Key:
Melanocortin receptor 3 = Melanocortin receptor 3 (Homo sapiens, UniProt P41968)
[1] = target: T1, Alpha-2C adrenergic receptor (Homo sapiens, UniProt P18825); format: functional
T1 sequence (P18825 whole entry): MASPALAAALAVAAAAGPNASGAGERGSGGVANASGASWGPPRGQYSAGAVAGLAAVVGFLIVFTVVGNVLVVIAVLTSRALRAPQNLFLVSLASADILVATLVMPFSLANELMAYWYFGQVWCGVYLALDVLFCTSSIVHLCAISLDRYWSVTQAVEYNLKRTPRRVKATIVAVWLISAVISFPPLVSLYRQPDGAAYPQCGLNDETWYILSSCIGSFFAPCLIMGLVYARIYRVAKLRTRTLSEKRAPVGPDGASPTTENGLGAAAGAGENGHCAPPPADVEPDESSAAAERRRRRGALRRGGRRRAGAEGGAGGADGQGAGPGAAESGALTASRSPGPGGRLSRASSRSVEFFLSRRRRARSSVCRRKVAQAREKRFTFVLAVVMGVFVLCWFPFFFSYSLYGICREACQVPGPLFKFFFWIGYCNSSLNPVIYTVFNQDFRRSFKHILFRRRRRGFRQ

[2] = target: Voltage-gated inwardly rectifying potassium channel KCNH2 (Homo sapiens, UniProt Q12809); format: functional
Adenosine receptor A1 = target: T2, Adenosine receptor A1 (Homo sapiens, UniProt P30542)
T2 sequence (P30542 whole entry): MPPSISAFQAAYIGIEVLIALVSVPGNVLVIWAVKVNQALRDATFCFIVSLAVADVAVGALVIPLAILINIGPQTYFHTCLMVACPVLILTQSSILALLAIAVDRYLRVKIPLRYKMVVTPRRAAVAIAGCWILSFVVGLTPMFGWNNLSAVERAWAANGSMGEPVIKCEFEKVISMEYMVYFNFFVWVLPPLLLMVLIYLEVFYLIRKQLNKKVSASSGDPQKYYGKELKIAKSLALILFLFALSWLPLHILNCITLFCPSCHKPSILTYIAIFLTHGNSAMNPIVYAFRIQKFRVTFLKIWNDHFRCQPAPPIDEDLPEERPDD

Cannabinoid receptor 1 = Cannabinoid receptor 1 (Homo sapiens, UniProt P21554); format: functional, cell-based
[3] = target: T3, Muscarinic acetylcholine receptor M2 (Homo sapiens, UniProt P08172); format: functional, cell-based
T3 sequence (P08172 whole entry): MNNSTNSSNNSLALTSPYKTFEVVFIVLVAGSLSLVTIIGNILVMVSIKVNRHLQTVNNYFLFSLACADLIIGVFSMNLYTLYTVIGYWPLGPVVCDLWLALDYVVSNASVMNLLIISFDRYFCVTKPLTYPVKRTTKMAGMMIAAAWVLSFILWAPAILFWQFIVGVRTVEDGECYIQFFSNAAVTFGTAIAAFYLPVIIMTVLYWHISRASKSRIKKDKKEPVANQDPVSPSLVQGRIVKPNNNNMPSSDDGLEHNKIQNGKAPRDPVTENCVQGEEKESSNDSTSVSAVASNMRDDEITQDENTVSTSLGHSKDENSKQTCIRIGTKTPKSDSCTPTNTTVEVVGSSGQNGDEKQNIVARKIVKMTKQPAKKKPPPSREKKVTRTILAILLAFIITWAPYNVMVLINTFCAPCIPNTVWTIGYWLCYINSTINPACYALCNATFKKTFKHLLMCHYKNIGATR

[4] = target: T4, Type-1 angiotensin II receptor (Homo sapiens, UniProt P30556)
T4 sequence (P30556 whole entry): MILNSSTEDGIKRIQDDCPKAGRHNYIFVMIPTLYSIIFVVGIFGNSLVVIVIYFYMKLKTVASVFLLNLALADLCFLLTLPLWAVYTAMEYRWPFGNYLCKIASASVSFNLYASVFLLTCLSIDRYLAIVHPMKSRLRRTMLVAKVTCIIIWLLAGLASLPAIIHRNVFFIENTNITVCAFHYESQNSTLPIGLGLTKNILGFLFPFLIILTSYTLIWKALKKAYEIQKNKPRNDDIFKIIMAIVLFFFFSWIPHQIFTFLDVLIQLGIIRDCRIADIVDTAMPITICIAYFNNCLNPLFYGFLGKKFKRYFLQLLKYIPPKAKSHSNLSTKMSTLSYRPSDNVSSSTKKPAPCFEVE

[5] = target: T5, Equilibrative nucleoside transporter 1 (Homo sapiens, UniProt Q99808)
T5 sequence (Q99808 whole entry): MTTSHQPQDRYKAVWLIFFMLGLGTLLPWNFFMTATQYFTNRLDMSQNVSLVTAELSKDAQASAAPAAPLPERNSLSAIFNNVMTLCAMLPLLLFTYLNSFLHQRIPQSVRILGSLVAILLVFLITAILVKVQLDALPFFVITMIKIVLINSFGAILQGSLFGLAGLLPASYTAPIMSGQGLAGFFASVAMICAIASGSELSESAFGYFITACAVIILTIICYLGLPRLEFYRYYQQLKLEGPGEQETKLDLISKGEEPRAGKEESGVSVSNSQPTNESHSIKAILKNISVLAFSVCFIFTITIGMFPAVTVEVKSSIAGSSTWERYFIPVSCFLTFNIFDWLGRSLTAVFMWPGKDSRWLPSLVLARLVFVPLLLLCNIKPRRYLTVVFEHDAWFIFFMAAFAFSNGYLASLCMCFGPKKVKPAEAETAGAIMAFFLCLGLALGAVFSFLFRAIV

[6] = target: Sodium-dependent noradrenaline transporter (Homo sapiens, UniProt P23975)
Adenosine receptor A3 = target: T6, Adenosine receptor A3 (Homo sapiens, UniProt P0DMS8)
T6 sequence (P0DMS8 whole entry): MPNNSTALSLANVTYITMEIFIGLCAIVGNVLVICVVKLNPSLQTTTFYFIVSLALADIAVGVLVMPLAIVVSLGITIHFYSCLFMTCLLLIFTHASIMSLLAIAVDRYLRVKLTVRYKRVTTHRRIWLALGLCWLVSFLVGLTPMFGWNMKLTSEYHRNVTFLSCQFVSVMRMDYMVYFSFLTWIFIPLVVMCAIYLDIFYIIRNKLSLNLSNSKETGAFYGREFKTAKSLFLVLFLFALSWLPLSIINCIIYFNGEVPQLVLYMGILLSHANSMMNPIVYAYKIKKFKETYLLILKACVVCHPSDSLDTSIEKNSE

[7] = target: Glutamate receptor ionotropic, NMDA 1 (Rattus norvegicus, UniProt P35439)
Further: assay procedure not described here.

Cannabinoid receptor 1, sequence (P21554 whole entry): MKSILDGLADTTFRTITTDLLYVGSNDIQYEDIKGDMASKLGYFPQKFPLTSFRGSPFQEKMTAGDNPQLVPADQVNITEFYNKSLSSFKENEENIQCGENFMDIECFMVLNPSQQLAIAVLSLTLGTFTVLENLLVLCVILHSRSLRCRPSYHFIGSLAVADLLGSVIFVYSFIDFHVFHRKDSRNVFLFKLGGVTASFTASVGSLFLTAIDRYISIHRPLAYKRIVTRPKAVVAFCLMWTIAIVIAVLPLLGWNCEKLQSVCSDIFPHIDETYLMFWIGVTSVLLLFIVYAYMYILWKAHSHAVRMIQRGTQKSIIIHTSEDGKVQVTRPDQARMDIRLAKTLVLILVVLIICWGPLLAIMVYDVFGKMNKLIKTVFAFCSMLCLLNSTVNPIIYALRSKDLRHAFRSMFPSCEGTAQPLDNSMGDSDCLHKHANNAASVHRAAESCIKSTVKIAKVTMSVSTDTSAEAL
Melanocortin receptor 3, sequence (P41968 whole entry): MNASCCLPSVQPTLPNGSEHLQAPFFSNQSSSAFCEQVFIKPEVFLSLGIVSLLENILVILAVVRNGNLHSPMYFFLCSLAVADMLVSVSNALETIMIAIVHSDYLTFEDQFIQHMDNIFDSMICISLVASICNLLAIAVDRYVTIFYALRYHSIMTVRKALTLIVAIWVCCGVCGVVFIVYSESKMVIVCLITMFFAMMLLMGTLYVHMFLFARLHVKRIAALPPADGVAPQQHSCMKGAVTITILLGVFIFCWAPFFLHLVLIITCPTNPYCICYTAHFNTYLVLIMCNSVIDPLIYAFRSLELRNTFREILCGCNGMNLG
Sodium-dependent noradrenaline transporter, sequence (P23975 whole entry): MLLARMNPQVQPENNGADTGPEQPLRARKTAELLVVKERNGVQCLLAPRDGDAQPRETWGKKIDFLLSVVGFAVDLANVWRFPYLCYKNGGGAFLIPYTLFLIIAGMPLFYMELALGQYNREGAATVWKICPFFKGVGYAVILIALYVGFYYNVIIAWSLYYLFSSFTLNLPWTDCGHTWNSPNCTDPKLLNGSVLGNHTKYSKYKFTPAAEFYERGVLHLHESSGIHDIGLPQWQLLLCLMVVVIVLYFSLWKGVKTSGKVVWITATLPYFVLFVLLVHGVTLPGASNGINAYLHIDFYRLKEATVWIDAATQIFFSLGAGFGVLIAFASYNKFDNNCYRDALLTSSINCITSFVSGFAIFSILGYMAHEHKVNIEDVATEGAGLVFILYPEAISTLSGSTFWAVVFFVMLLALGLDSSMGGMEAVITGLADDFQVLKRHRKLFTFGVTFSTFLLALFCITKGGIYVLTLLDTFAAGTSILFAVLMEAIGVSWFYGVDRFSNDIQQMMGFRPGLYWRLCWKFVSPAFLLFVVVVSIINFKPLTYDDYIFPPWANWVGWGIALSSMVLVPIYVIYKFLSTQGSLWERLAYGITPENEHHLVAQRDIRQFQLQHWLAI
Voltage-gated inwardly rectifying potassium channel KCNH2, sequence (Q12809 whole entry): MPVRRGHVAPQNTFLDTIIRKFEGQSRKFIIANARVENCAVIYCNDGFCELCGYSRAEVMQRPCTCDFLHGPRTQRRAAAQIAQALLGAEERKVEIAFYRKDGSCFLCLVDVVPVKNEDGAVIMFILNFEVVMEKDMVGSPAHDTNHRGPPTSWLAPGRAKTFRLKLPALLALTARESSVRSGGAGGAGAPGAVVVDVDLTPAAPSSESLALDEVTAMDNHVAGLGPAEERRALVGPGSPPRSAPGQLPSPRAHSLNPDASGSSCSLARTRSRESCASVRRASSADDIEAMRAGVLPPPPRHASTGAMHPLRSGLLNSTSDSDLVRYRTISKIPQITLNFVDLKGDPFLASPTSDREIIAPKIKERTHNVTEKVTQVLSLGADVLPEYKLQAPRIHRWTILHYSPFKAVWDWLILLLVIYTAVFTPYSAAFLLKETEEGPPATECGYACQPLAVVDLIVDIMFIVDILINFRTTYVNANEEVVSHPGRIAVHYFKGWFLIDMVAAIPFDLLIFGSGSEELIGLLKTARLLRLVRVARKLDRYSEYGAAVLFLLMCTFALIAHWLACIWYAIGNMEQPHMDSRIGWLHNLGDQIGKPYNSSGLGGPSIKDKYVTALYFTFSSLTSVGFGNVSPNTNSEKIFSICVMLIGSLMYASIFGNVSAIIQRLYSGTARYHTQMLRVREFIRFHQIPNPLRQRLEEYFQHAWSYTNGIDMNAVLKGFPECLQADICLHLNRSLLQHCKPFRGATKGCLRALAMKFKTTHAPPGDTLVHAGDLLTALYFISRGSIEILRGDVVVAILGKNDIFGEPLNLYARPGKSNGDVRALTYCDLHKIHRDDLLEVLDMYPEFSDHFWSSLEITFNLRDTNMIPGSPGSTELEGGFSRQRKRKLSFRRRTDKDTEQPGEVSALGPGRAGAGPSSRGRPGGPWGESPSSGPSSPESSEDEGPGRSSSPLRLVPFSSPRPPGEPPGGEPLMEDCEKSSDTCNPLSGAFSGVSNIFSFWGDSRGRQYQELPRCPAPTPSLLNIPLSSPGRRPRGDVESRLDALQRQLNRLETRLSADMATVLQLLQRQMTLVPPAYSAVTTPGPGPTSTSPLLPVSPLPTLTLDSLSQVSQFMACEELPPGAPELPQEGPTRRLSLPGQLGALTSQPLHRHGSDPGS

Row | Compound | AC50 (Melanocortin receptor 3) [µM] | AC50 [1] [µM] | AC50 [2] [µM] | AC50 (Adenosine receptor A1) [µM] | AC50 (Cannabinoid receptor 1) [µM] | AC50 [3] [µM] | AC50 [4] [µM] | AC50 [5] [µM] | AC50 [6] [µM] | AC50 (Adenosine receptor A3) [µM] | AC50 [7] [µM]
1 | CCC(C)C1(CC)C(=O)NC(=O)NC1=O (stereo not drawn) [BUTABARBITAL] | > 30 | > 30 | > 30 | > 30 | > 30 | > 30 | > 30 | > 30 | > 30 | > 30 | –
2 | Oc1ccc2c(c1)CC[C@H](c1ccccc1)[C@@H]2c1ccc(OCCN2CCCC2)cc1 [LASOFOXIFENE] | 11 | – | 0.73 | > 30 | > 30 | 15 | > 30 | > 30 | 2 | 5.8 | > 30
3 | Cc1cccc(N2CC(CO)OC2=O)c1 (stereo not drawn) [TOLOXATONE] | > 30 | > 30 | > 30 | > 30 | > 30 | > 30 | > 30 | – | – | > 30 | > 30
4 | Cc1cc(C(C)(C)C)cc(C)c1CC1=NCCN1 [XYLOMETAZOLINE] | > 30 | 0.239 | 5.2 | > 30 | > 30 | > 30 | > 30 | – | > 30 | > 30 | > 30
5 | CC(N)C(O)c1ccccc1 (stereo not drawn) [PHENYLPROPANOLAMINE] | > 30 | 7.3 | > 30 | > 30 | – | > 10 | > 30 | > 30 | > 30 | > 30 | > 10
6 | C=CCNc1nc(NCC=C)nc(N2CCN(C(c3ccc(F)cc3)c3ccc(F)cc3)CC2)n1 [ALMITRINE] | > 30 | > 30 | > 30 | > 30 | – | > 30 | > 30 | > 30 | > 30 | > 30 | > 30
7 | CC(C(=O)O)c1ccc(-c2ccccc2)c(F)c1 (stereo not drawn) [FLURBIPROFEN] | > 10 | > 10 | > 30 | > 10 | – | > 10 | > 10 | > 10 | > 10 | > 10 | > 10
8 | Nc1ncn([C@H]2C[C@H](O)[C@@H](CO)O2)c(=O)n1 [DECITABINE] | > 30 | > 30 | > 30 | > 30 | – | > 30 | > 30 | > 30 | > 30 | > 30 | > 30
9 | CCOC(=O)c1cncn1[C@H](C)c1ccccc1 [ETOMIDATE] | > 10 | > 10 | > 30 | > 10 | – | > 10 | > 10 | > 10 | > 10 | > 10 | > 10
10 | CC(C)NCC(O)c1ccc(O)c(O)c1 (stereo not drawn) [ISOPROTERENOL] | > 30 | – | > 30 | > 30 | > 30 | > 10 | > 30 | > 30 | > 30 | 20.3 | > 10
11 | CC(C)[C@H](N)C(=O)OCC(CO)OCn1cnc2c(=O)nc(N)[nH]c21 (stereo partly drawn) [VALGANCICLOVIR] | > 30 | > 30 | > 30 | > 30 | – | > 30 | > 30 | > 30 | > 30 | > 30 | > 30
12 | O=[N+]([O-])c1ccc(O)c2ncccc12 [NITROXOLINE] | – | 7.1 | 28 | – | > 30 | > 30 | – | – | – | – | > 30
13 | CN(C)CCCNc1c2ccccc2nc2cccc([N+](=O)[O-])c12 [NITRACRINE] | > 30 | 5.2 | 0.46 | > 30 | > 30 | > 30 | > 30 | – | > 30 | > 30 | > 30
14 | CN1CCC(=C2c3ccccc3CCc3cccnc32)CC1 [AZATADINE] | > 30 | – | 24.6 | > 30 | > 30 | > 10 | > 30 | > 30 | > 30 | > 30 | > 10
15 | CC12CC3CC(C)(C1)CC(N)(C3)C2 [MEMANTINE] | > 30 | > 10 | > 30 | > 30 | > 30 | > 10 | > 30 | > 30 | > 30 | > 30 | –
16 | CCC(C)C(CC)C(N)=O (stereo not drawn) [VALNOCTAMIDE] | > 30 | > 30 | > 30 | > 30 | > 30 | > 30 | > 30 | – | > 30 | > 30 | > 30
17 | Cc1cc2cc3c(C)cc(=O)oc3c(C)c2o1 [TRIOXSALEN] | > 10 | > 10 | > 30 | > 30 | – | > 10 | > 10 | > 10 | > 10 | > 30 | > 10
18 | CN1CCN(C2=Nc3ccccc3Oc3ccc(Cl)cc32)CC1 [LOXAPINE] | > 30 | – | 10.6 | > 30 | > 30 | – | > 30 | > 30 | 1.53 | > 30 | > 10
19 | CCOC(=O)C1=C[C@]2(CC)CCCN3CCc4c(n1c1ccccc41)[C@@H]32 [VINPOCETINE] | > 30 | 1.1 | – | 30 | > 30 | 13 | > 30 | > 30 | > 30 | > 30 | > 30
